# Source: ChEMBL document CHEMBL3992513, “Synthesis, anti-inflammatory, cyclooxygenases inhibitions assays and histopathological study of poly-substituted 1,3,5-triazines: Confirmation of regiospecific pyrazole cyclization by HMBC” (Eur J Med Chem, 2017)
# pIC50: −log10 of the molar value.
# Molecular target: T1, Prostaglandin G/H synthase 1 (Ovis aries, UniProt P05979)
# T1 sequence (P05979 whole entry): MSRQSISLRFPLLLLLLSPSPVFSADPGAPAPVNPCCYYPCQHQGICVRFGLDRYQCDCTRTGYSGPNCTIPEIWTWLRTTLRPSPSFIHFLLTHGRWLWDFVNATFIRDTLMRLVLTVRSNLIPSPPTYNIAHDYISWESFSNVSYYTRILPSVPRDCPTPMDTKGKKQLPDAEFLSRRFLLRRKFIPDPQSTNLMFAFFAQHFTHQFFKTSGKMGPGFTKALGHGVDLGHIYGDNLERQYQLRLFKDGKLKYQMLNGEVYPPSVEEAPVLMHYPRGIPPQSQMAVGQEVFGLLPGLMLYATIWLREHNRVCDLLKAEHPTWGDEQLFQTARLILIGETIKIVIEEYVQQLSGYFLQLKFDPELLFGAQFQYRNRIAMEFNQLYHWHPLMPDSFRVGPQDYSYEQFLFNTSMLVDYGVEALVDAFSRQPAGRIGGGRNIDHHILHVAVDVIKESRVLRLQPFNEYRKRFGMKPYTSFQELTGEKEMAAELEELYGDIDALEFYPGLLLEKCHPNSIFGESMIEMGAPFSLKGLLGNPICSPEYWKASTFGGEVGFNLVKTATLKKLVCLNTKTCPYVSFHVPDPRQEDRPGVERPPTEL
# Assay: Inhibition of ovine COX1 using arachidonic acid as substrate preincubated for 5 mins followed by substrate addition measured after 2 mins by enzyme immunoassay
# Conditions: not given
row,pIC50,SMILES
1,5.28,c1cc(-c2ccc(Nc3nc(N4CCOCC4)nc(N4CCOCC4)n3)cc2)[nH]n1
2,5.31,c1cc(-c2ccc(Nc3nc(N4CCCCC4)nc(N4CCCCC4)n3)cc2)[nH]n1
3,5.36,c1cc(-c2ccc(Nc3nc(N4CCOCC4)nc(N4CCOCC4)n3)cc2)on1
4,5.45,COc1cc(C2CC(c3ccc(Nc4nc(N5CCCCC5)nc(N5CCCCC5)n4)cc3)=NN2C(C)=O)cc(OC)c1OC (stereo unspecified)
5,5.14,c1cc(-c2ccc(Nc3nc(N4CCCCC4)nc(N4CCCCC4)n3)cc2)on1
6,5.30,c1ccc(-n2nccc2-c2ccc(Nc3nc(N4CCOCC4)nc(N4CCOCC4)n3)cc2)cc1
7,5.08,CC(=O)c1ccc(Nc2nc(N3CCCCC3)nc(N3CCCCC3)n2)cc1
8,5.19,c1ccc(-n2nccc2-c2ccc(Nc3nc(N4CCCCC4)nc(N4CCCCC4)n3)cc2)cc1
9,5.16,CN(C)/C=C/C(=O)c1ccc(Nc2nc(N3CCCCC3)nc(N3CCCCC3)n2)cc1
10,5.33,COc1cc(/C=C/C(=O)c2ccc(Nc3nc(N4CCOCC4)nc(N4CCOCC4)n3)cc2)cc(OC)c1OC
11,5.41,CS(=O)(=O)c1ccc(-n2nccc2-c2ccc(Nc3nc(N4CCOCC4)nc(N4CCOCC4)n3)cc2)cc1
12,5.23,CC(=O)c1ccc(Nc2nc(N3CCOCC3)nc(N3CCOCC3)n2)cc1
13,5.40,CN(C)/C=C/C(=O)c1ccc(Nc2nc(N3CCOCC3)nc(N3CCOCC3)n2)cc1
14,5.10,CS(=O)(=O)c1ccc(-n2nccc2-c2ccc(Nc3nc(N4CCCCC4)nc(N4CCCCC4)n3)cc2)cc1
15,5.06,COc1cc(C2CC(c3ccc(Nc4nc(N5CCOCC5)nc(N5CCOCC5)n4)cc3)=NN2C(C)=O)cc(OC)c1OC (stereo unspecified)
16,5.14,COc1cc(/C=C/C(=O)c2ccc(Nc3nc(N4CCCCC4)nc(N4CCCCC4)n3)cc2)cc(OC)c1OC

# System: Rattus norvegicus
# Assay: Anti-inflammatory activity in Wistar albino rat assessed as inhibition of carragenan-induced paw edema thickness at 50 mg/kg, po measured after 1 hr relative to control
# Format: functional
# Conditions: not given
row,SMILES,inhibition in vivo at 50 mg/kg [%]
1,Cc1ccc(-c2cc(C(F)(F)F)nn2-c2ccc(S(N)(=O)=O)cc2)cc1 [CELECOXIB],77
2,c1cc(-c2ccc(Nc3nc(N4CCCCC4)nc(N4CCCCC4)n3)cc2)[nH]n1,58
3,COc1cc(C2CC(c3ccc(Nc4nc(N5CCCCC5)nc(N5CCCCC5)n4)cc3)=NN2C(C)=O)cc(OC)c1OC (stereo unspecified),45
4,c1cc(-c2ccc(Nc3nc(N4CCCCC4)nc(N4CCCCC4)n3)cc2)on1,51
5,c1ccc(-n2nccc2-c2ccc(Nc3nc(N4CCCCC4)nc(N4CCCCC4)n3)cc2)cc1,32
6,CN(C)/C=C/C(=O)c1ccc(Nc2nc(N3CCCCC3)nc(N3CCCCC3)n2)cc1,19
7,COc1cc(/C=C/C(=O)c2ccc(Nc3nc(N4CCOCC4)nc(N4CCOCC4)n3)cc2)cc(OC)c1OC,58
8,CC(=O)c1ccc(Nc2nc(N3CCOCC3)nc(N3CCOCC3)n2)cc1,21
9,CS(=O)(=O)c1ccc(-n2nccc2-c2ccc(Nc3nc(N4CCCCC4)nc(N4CCCCC4)n3)cc2)cc1,36

# System: Rattus norvegicus
# Assay: Anti-inflammatory activity in Wistar albino rat assessed as inhibition of carragenan-induced paw edema thickness at 50 mg/kg, po measured after 3 hrs relative to control
# Format: functional
# Conditions: not given
row,SMILES,inhibition in vivo at 50 mg/kg [%]
1,Cc1ccc(-c2cc(C(F)(F)F)nn2-c2ccc(S(N)(=O)=O)cc2)cc1 [CELECOXIB],72
2,c1cc(-c2ccc(Nc3nc(N4CCCCC4)nc(N4CCCCC4)n3)cc2)[nH]n1,24
3,COc1cc(C2CC(c3ccc(Nc4nc(N5CCCCC5)nc(N5CCCCC5)n4)cc3)=NN2C(C)=O)cc(OC)c1OC (stereo unspecified),34
4,c1cc(-c2ccc(Nc3nc(N4CCCCC4)nc(N4CCCCC4)n3)cc2)on1,26
5,c1ccc(-n2nccc2-c2ccc(Nc3nc(N4CCCCC4)nc(N4CCCCC4)n3)cc2)cc1,18
6,CN(C)/C=C/C(=O)c1ccc(Nc2nc(N3CCCCC3)nc(N3CCCCC3)n2)cc1,14
7,COc1cc(/C=C/C(=O)c2ccc(Nc3nc(N4CCOCC4)nc(N4CCOCC4)n3)cc2)cc(OC)c1OC,18
8,CC(=O)c1ccc(Nc2nc(N3CCOCC3)nc(N3CCOCC3)n2)cc1,8
9,CS(=O)(=O)c1ccc(-n2nccc2-c2ccc(Nc3nc(N4CCCCC4)nc(N4CCCCC4)n3)cc2)cc1,38

# System: Rattus norvegicus
# Assay: Anti-inflammatory activity in Wistar albino rat assessed as inhibition of carragenan-induced paw edema thickness at 50 mg/kg, po measured after 5 hrs relative to control
# Format: functional
# Conditions: not given
row,SMILES,inhibition in vivo at 50 mg/kg [%]
1,Cc1ccc(-c2cc(C(F)(F)F)nn2-c2ccc(S(N)(=O)=O)cc2)cc1 [CELECOXIB],20
2,c1cc(-c2ccc(Nc3nc(N4CCCCC4)nc(N4CCCCC4)n3)cc2)[nH]n1,5
3,COc1cc(C2CC(c3ccc(Nc4nc(N5CCCCC5)nc(N5CCCCC5)n4)cc3)=NN2C(C)=O)cc(OC)c1OC (stereo unspecified),2
4,c1cc(-c2ccc(Nc3nc(N4CCCCC4)nc(N4CCCCC4)n3)cc2)on1,25
5,c1ccc(-n2nccc2-c2ccc(Nc3nc(N4CCCCC4)nc(N4CCCCC4)n3)cc2)cc1,2
6,CN(C)/C=C/C(=O)c1ccc(Nc2nc(N3CCCCC3)nc(N3CCCCC3)n2)cc1,20
7,COc1cc(/C=C/C(=O)c2ccc(Nc3nc(N4CCOCC4)nc(N4CCOCC4)n3)cc2)cc(OC)c1OC,15
8,CC(=O)c1ccc(Nc2nc(N3CCOCC3)nc(N3CCOCC3)n2)cc1,0
9,CS(=O)(=O)c1ccc(-n2nccc2-c2ccc(Nc3nc(N4CCCCC4)nc(N4CCCCC4)n3)cc2)cc1,20

# System: Rattus norvegicus
# Assay: Ulcerogenicity in Wistar albino rat model of carragenan-induced paw edema assessed as degenrative changes with necrotic changes in gastric mucosa at 50 mg/kg, po by hematoxylin and eosin staining based histopathological analysis
# Format: toxicity, organism-based
# Conditions: in vivo
row,SMILES,Activity
1,Cc1ccc(-c2cc(C(F)(F)F)nn2-c2ccc(S(N)(=O)=O)cc2)cc1 [CELECOXIB],Toxic
2,COc1cc(C2CC(c3ccc(Nc4nc(N5CCCCC5)nc(N5CCCCC5)n4)cc3)=NN2C(C)=O)cc(OC)c1OC (stereo unspecified),Toxic
3,COc1ccc2c(c1)c(CC(=O)O)c(C)n2C(=O)c1ccc(Cl)cc1 [INDOMETHACIN],Toxic
4,c1ccc(-n2nccc2-c2ccc(Nc3nc(N4CCOCC4)nc(N4CCOCC4)n3)cc2)cc1,Toxic
5,COc1cc(/C=C/C(=O)c2ccc(Nc3nc(N4CCOCC4)nc(N4CCOCC4)n3)cc2)cc(OC)c1OC,Non-Toxic
6,CS(=O)(=O)c1ccc(-n2nccc2-c2ccc(Nc3nc(N4CCOCC4)nc(N4CCOCC4)n3)cc2)cc1,Non-Toxic
7,CN(C)/C=C/C(=O)c1ccc(Nc2nc(N3CCOCC3)nc(N3CCOCC3)n2)cc1,Toxic

# System: Rattus norvegicus
# Assay: Ulcerogenicity in Wistar albino rat model of carragenan-induced paw edema assessed as leucocytic infiltration in sub mucosa at 50 mg/kg, po by hematoxylin and eosin staining based histopathological analysis
# Format: toxicity, organism-based
# Conditions: in vivo
row,SMILES,Activity
1,Cc1ccc(-c2cc(C(F)(F)F)nn2-c2ccc(S(N)(=O)=O)cc2)cc1 [CELECOXIB],Toxic
2,COc1cc(C2CC(c3ccc(Nc4nc(N5CCCCC5)nc(N5CCCCC5)n4)cc3)=NN2C(C)=O)cc(OC)c1OC (stereo unspecified),Toxic
3,COc1ccc2c(c1)c(CC(=O)O)c(C)n2C(=O)c1ccc(Cl)cc1 [INDOMETHACIN],Toxic
4,c1ccc(-n2nccc2-c2ccc(Nc3nc(N4CCOCC4)nc(N4CCOCC4)n3)cc2)cc1,Toxic
5,COc1cc(/C=C/C(=O)c2ccc(Nc3nc(N4CCOCC4)nc(N4CCOCC4)n3)cc2)cc(OC)c1OC,Non-Toxic
6,CN(C)/C=C/C(=O)c1ccc(Nc2nc(N3CCOCC3)nc(N3CCOCC3)n2)cc1,Toxic

# System: Rattus norvegicus
# Assay: Ulcerogenicity in Wistar albino rat model of carragenan-induced paw edema assessed as blood vessel dilation in sub-mucosa at 50 mg/kg, po by hematoxylin and eosin staining based histopathological analysis
# Format: toxicity, organism-based
# Conditions: in vivo
row,SMILES,Activity
1,Cc1ccc(-c2cc(C(F)(F)F)nn2-c2ccc(S(N)(=O)=O)cc2)cc1 [CELECOXIB],Toxic
2,COc1ccc2c(c1)c(CC(=O)O)c(C)n2C(=O)c1ccc(Cl)cc1 [INDOMETHACIN],Toxic

# System: Rattus norvegicus
# Assay: Ulcerogenicity in Wistar albino rat model of carragenan-induced paw edema assessed as hyalinosis and coagulative necrosis of muscular layer in stomach at 50 mg/kg, po by hematoxylin and eosin staining based histopathological analysis
# Format: toxicity, organism-based
# Conditions: in vivo
row,SMILES,Activity
1,COc1ccc2c(c1)c(CC(=O)O)c(C)n2C(=O)c1ccc(Cl)cc1 [INDOMETHACIN],Toxic
2,c1ccc(-n2nccc2-c2ccc(Nc3nc(N4CCOCC4)nc(N4CCOCC4)n3)cc2)cc1,Toxic
3,COc1cc(/C=C/C(=O)c2ccc(Nc3nc(N4CCOCC4)nc(N4CCOCC4)n3)cc2)cc(OC)c1OC,Non-Toxic
4,CS(=O)(=O)c1ccc(-n2nccc2-c2ccc(Nc3nc(N4CCOCC4)nc(N4CCOCC4)n3)cc2)cc1,Non-Toxic
5,CN(C)/C=C/C(=O)c1ccc(Nc2nc(N3CCOCC3)nc(N3CCOCC3)n2)cc1,Toxic

# System: Rattus norvegicus
# Assay: Ulcerogenicity in Wistar albino rat model of carragenan-induced paw edema assessed as corrugations of muscular layer in stomach at 50 mg/kg, po by hematoxylin and eosin staining based histopathological analysis
# Format: toxicity, organism-based
# Conditions: in vivo
row,SMILES,Activity
1,Cc1ccc(-c2cc(C(F)(F)F)nn2-c2ccc(S(N)(=O)=O)cc2)cc1 [CELECOXIB],Toxic

# System: Rattus norvegicus
# Assay: Ulcerogenicity in Wistar albino rat model of carragenan-induced paw edema assessed as blood vessel congestion with edema in sub-mucosa at 50 mg/kg, po by hematoxylin and eosin staining based histopathological analysis
# Format: toxicity, organism-based
# Conditions: in vivo
row,SMILES,Activity
1,c1ccc(-n2nccc2-c2ccc(Nc3nc(N4CCOCC4)nc(N4CCOCC4)n3)cc2)cc1,Toxic
2,COc1cc(/C=C/C(=O)c2ccc(Nc3nc(N4CCOCC4)nc(N4CCOCC4)n3)cc2)cc(OC)c1OC,Toxic
